The text below walks through data of patent US20090036488A1, “RECURRENCE PREVENTIVE THERAPEUTIC AGENT FOR PSYCHOSTIMULANT-INDUCED PSYCHOSIS AND SCHIZOPHRENIA” (Tokyo Medical and Dental University, priority 2005, published 2009).

Each structure is given as a SMILES string.

Test [1] has as its system MAP reverse tolerance model. As to the kind of experiment: Test to confirm effects of administration with fluoxetine or paroxetine in the MAP reverse tolerance model. In kind it is in vivo, mice. On the procedure: Regarding formation of reverse tolerance, 1 mg/kg/day MAP was administered to eight-week-old male ddy mice for ten days as a pretreatment in a similar way to the abovementioned method. After a 11-day washout period, 10 mg/kg/day fluoxetine was then administered. Fluoxetine was prepared by dissolving in saline and administered by subcutaneous injection. In addition, after 9 to 11-day washout period, 0.24 mg/kg MAP was administered, the locomotor hyperactivity of the mice was measured and evaluated one hour later.
Regarding formation of reverse tolerance, MAP 1 mg/kg/day […] was administered to eight-week-old male ddy mice for ten days as a pretreatment in a similar way to the abovementioned method. After an 11-day washout period, 8 mg/kg/day paroxetine was then administered. Paroxetine was prepared by dissolving in saline and administered by subcutaneous injection. In addition, after 9 to 11-day washout period, 0.24 mg/kg MAP was administered, and the locomotor hyperactivity of the mice was measured and evaluated one hour later.

The subject of another test is male ddy mice. As to the kind of experiment: Test for formation/maintenance of reverse tolerance. The format is in vivo. On the procedure: Methamphetamine (hereinafter, may be also referred to as “MAP”) which is a psychostimulant was administered to an animal, and then formation/maintenance of reverse tolerance was verified. In this test, eight-week-old male ddy mice were used. […] First, mice were divided into two groups, and then 1 mg/kg/day MAP and saline were respectively administered to each group for ten days as pretreatment. The agent was prepared by dissolving in saline and administered by subcutaneous injection. Hereinafter, the group to which MAP was administered is called “MAP administrated group”, and the group to which saline was administered is called “SAL administrated group”. MAP of 1 mg/kg used here corresponds an amount to result in increase in locomotor hyperactivity when it is administered to mice. In addition, a first administration of MAP was conducted after a 10-day washout period in order to confirm if this phenomenon was maintained. The dosage, 0.24 mg/kg, was less than that of the pretreatment, which is reportedly a quantity not causing abnormal behavior to appear in normal mice received the administration. Then, following a 29-day washout period, a second administration was conducted. Upon the administration on the day 10 and the day 29, MAP was also administered to the SAL administrated group in the same amount as administered to the MAP administrated group.
During the pretreatment, activity quantity in an hour was measured after MAP or saline administration on Days 1, 3, 7, and 10. […] In the case of a typical drug administration, tolerance is formed to gradually decrease influences of the administered drug.
In addition, comparing the MAP administrated group with the SAL administrated group, in both administrations on day 10 and day 29, it was clear that the activity quantity of the MAP administrated group was higher, so that it was confirmed that influences of the drug were maintained even after a longer than one-month washout period.

Regarding `CNCCC(Oc1ccc(C(F)(F)F)cc1)c1ccccc1` (stereo not drawn) [FLX, fluoxetine], the “locomotor hyperactivity vs group without FLX in the treatment phase (Example 1 vs Comparative Example 7)” value in test [1] (MAP 1 mg/kg/day for 10 days, 11-day washout, fluoxetine 10 mg/kg/day s.c., 9 to 11-day washout, 0.24 mg/kg MAP, measured one hour later) was “locomotor hyperactivity decreased”. In addition, the “reverse tolerance, vs group in which reverse tolerance was not formed (Example 1 vs Comparative Example 3)” value in test [1] (fluoxetine 10 mg/kg/day s.c. after MAP pretreatment, 0.24 mg/kg MAP challenge) was “reverse tolerance disappeared”. In addition, in test [1] (saline pretreatment, reverse tolerance not formed, fluoxetine 10 mg/kg/day s.c.), the “effect of FLX itself on activity quantity (Comparative Example 1 vs 2, 3 vs 4)” value is given as “did not decrease the activity quantity”.

Turning to `CN[C@@H](C)Cc1ccccc1` [MAP, Methamphetamine], the “activity quantity after MAP re-administration, MAP administrated group vs SAL administrated group” value in the test on male ddy mice (0.24 mg/kg MAP on day 10 and day 29 after washout) is “higher”. In addition, in the test on male ddy mice (MAP 1 mg/kg/day s.c. for ten days), the “formation of reverse tolerance” value is “reverse tolerance was formed”. In addition, the “activity quantity in an hour (locomotor hyperactivities per hour) during pretreatment” value with male ddy mice (MAP 1 mg/kg/day s.c. for ten days, measured on Days 1, 3, 7 and 10) was “increased in a time dependent manner”.

`Fc1ccc([C@@H]2CCNC[C@H]2COc2ccc3c(c2)OCO3)cc1` [PLX, paroxetine]: the “locomotor hyperactivity vs group without PLX in the treatment phase (Example 2 vs Comparative Example 14)” value in test [1] (MAP 1 mg/kg/day for 10 days, 11-day washout, paroxetine 8 mg/kg/day s.c., 9 to 11-day washout, 0.24 mg/kg MAP, measured one hour later) is given as “locomotor hyperactivity decreased”. Further, in test [1] (paroxetine 8 mg/kg/day s.c. after MAP pretreatment, 0.24 mg/kg MAP challenge), the “reverse tolerance, vs group in which reverse tolerance was not formed (Example 2 vs Comparative Example 10)” value is on record as “reverse tolerance disappeared”. Moreover, the “effect of PLX itself on activity quantity (Comparative Example 8 vs 9, 10 vs 11)” value in test [1] (saline pretreatment, reverse tolerance not formed, paroxetine 8 mg/kg/day s.c.) is recorded as “did not decrease activity quantity”.
